Read-outs that look alike come from different tables or passages of the source.
Tests used:
[1] = tested on: Astroglial cells derived from the mouse forebrain; experiment: Synthesis-stimulating activity on NGF (NGF level in culture medium by enzyme immunoassay); type: cell-based; conditions: ratio to DMSO control = 1.0
Description: The activity of accelerating secretion of NGF was evaluated by the following method.
Each compound shown in Table 1 was dissolved in dimethylsulfoxide (DMSO) to adjust the concentration in the range of 2 mg/ml to 10 mg/ml.
Astroglial cells derived from the mouse forebrain (cells that synthesize and secrete NGF)
Astroglial cells obtained from the mouse forebrain were cultured into 8 x 10⁵ cells/ml in Dulbecco's modified Eagle's medium obtained from Gibco, glucose-rich, containing 20% fetal calf serum, 100 units/ml of penicillin and 100 µg/ml of streptomycin. A 0.1 ml/well aliquot was inoculated on a 96-well plate obtained from Falcon and having an area of 0.32 cm² per well and cultured at 37°C in an atmosphere of 5% CO₂. The culture medium was removed 72 hours later and instead, a 0.1 ml/well aliquot of fresh Dulbecco's modified Eagle's medium containing 0.5% bovine albumin powders obtained from Armour, 100 units/ml of penicillin and 100 µg/ml of streptomycin was supplemented to the system followed by culturing at 37°C in 5% CO₂. The above medium containing the compound each having various concentrations was exchanged 72 hours later. For the purpose of comparison, the medium which contains only DMSO was also prepared (control).
The synthesis-stimulating activity on NGF by the compound of the present invention is shown in terms of a ratio when the NGF level in the control containing only DMSO was made 1.0.

[2] = tested on: both common carotid artery-occlusion model Mongolian gerbils; experiment: Test on delayed neuronal death induced by cerebral ischemia (3 min occlusion of both common carotid arteries, histology of hippocampus after 7 days); type: in vivo; conditions: for Incidence Frequency of Neuronal Damage -: score 0 (-), normal neurons; for Incidence Frequency of Neuronal Damage +: score 1 (+), a few neurons damaged; for Incidence Frequency of Neuronal Damage ++: score 2 (++), many neurons damaged; for Incidence Frequency of Neuronal Damage +++: score 3 (+++), majority of neurons damaged
Description: Neuronal damages induced by cerebral ischemia was evaluated in the both common carotid artery-occlusion model Mongolian gerbils. Male Monglian gerbils, supplied by Shin Nihon Dobutsu Co., Ltd., Saitama, Japan and weighing 60 to 90 g. The gerbils were anesthetized lightly with ether and placed in the supine position. After local infiltration of xylocaine, both common carotid arteries were exposed through a ventral midline incision. The arteries were then clamped with aneurysm clips for 3 minutes. Thereafter the clips were removed and the skin was sutured. Sham operated animals were treated in the same manner, except that clamping was not done. The animals were anesthetized with ether 7 days after the bilateral common carotid arteries had been occluded for 3 minutes, and the brains were perfused with a 10% buffered formalin solution given through the left cardiac ventricle. The hippocampal region was cut coronally into 3- to 4-mm thick slices, embedded in paraffin and processed using the step section technique. The preparations were stained with hematoxylin and eosin. Ischemic neuronal damage was graded on 4 levels from scores 0 to 3: score 0 (-), normal neurons; score 1 (+), a few neurons damaged (as few as one neuron damaged); score 2 (++), many neurons damaged; and score 3 (+++), majority of neurons damaged. Compounds to be tested were suspended in gum arabic or dissolved in physiological saline, which was intraperitoneally given at determined times in doses of 10 mg/kg to 100 mg/kg, before and after the induced ischemia.

[3] = tested on: Cerebral cortical neuronal cells from an 18-day-old rat embryo; experiment: Test on neurotrophic activity (living cells counted by fluorescein diacetate fluorescence, with or without hypoxic load); type: cell-based
Description: The neurotrophic activity was determined by the following method. Each compound was dissolved in DMSO to adjust the concentration in the range of 2 mg/ml to 10 mg/ml. Cerebral cortical neuronal cells from an 18-day-old rat embryo […] After 24 hours of incubation, the culture medium was removed and a 0.5 ml/well aliquot of a serum-free fresh DF medium containing the respective compounds having various concentrations, 5 µg/ml of transferrin, 5 µg/ml of insulin and 20 pmoles/ml of progesterone was supplemented to the system. For the purpose of comparison, the medium containing only DMSO was added was also prepared. At this stage, the two same plates were used. After 72 hours of incubation in various medium, hypoxia was loaded on one plate by reducing the concentration of oxygen to the minimum concentration of 1% using a N₂-O₂-CO₂ incubator (manufactured by Tabai, Model BNP-100) and culturing for 4 hours under the conditions. Another plate was cultured in an atmosphere of 5% CO₂ and 95% air, without hypoxic load. After the incubation was continued for further 48 hours, living cells were counted. The culture medium was removed and fluorescein diacetate (FDA) reagent was reacted. After washing with phosphate buffer, pH 7.4, the fluorescent intensity (E x 485/Em 530) was measured by CytoFlour^TM 2300, manufactured by Millipore.

[4] = dose 100 mg/kg, intraperitoneally, immediately after ischemia
[5] = dose 10, intraperitoneally, 30 mins after ischemia
[6] = dose 10, intraperitoneally, 1 hour after ischemia
[7] = dose 10, intraperitoneally, immediately after ischemia
[8] = no hypoxic load, ratio of fluorescent intensity to DMSO control = 1.0, read-out: Neurotrophic Activity No Hypoxic Load
[9] = 4 h, hypoxic load (1% oxygen, 4 hours), ratio of fluorescent intensity to DMSO control = 1.0, read-out: Neurotrophic Activity Hypoxic Load
[10] = dose 100 mg/kg, intraperitoneally, before 30 mins

In the case of `Cc1ccc(-c2cc(-c3ccccn3)nc(-c3ccccn3)c2)cc1` [Compound 5, 4'-(4-Methylphenyl)-2,2':6',2''-terpyridine], the fold induction at 20 µg/mL ([1]; Mus musculus, 24 h, 20 µg/ml) is reported as 10.1, the fold induction at 100 µg/mL ([1]; Mus musculus, 24 h, 100 µg/ml) is reported as 9.8 and the Incidence Frequency of Neuronal Damage - [2, 4] is reported as 25%. For the same molecule, the Incidence Frequency of Neuronal Damage + [2, 4] was 50%, the Incidence Frequency of Neuronal Damage ++ [2, 4] was 0% and the Incidence Frequency of Neuronal Damage +++ [2, 4] was 25%.

With `Cc1ccc(-c2cc(-c3ccccn3)nc(-c3ccccn3)c2)cc1.Cl.Cl.Cl` [Compound 6, 4'-(4-Methylphenyl)-2,2':6',2''-terpyridin trihydrochloride] the “Synthesis-Stimulating Activity on NGF” value ([1]; 100 µg/ml, 24 hours) was 5.0, the fold induction at 10 µg/mL ([1]; Mus musculus, 24 h) was 2 and the fold induction at 30 µg/mL ([1]; Mus musculus, 24 h) was 3.3. For the same molecule, the “damages of the hippocampal CAl neurons” value ([2]; intraperitoneally given 30 minutes after or an hour after the ischemia had been induced) was “prevented damages of the hippocampal CAl neurons”, the Incidence Frequency of Neuronal Damage - [2, 5] was 25% and the Incidence Frequency of Neuronal Damage - [2, 6] was 0%. For the same molecule, the Incidence Frequency of Neuronal Damage - [2, 7] was 0%, the Incidence Frequency of Neuronal Damage + [2, 5] was 37.5% and the Incidence Frequency of Neuronal Damage + [2, 6] was 50%. For the same molecule, the Incidence Frequency of Neuronal Damage + [2, 7] was 75%, the Incidence Frequency of Neuronal Damage ++ [2, 5] was 12.5% and the Incidence Frequency of Neuronal Damage ++ [2, 6] was 25%. For the same molecule, the Incidence Frequency of Neuronal Damage ++ [2, 7] was 0%, the Incidence Frequency of Neuronal Damage +++ [2, 5] was 25% and the Incidence Frequency of Neuronal Damage +++ [2, 6] was 25%. For the same molecule, the Incidence Frequency of Neuronal Damage +++ [2, 7] was 25%.

In the case of `CCCCCCCCCCCCCCCCC(CCCCCCCCCCCCCCCC)c1cc[n+](Cc2ccc(-c3cc(-c4ccccn4)nc(-c4ccccn4)c3)cc2)cc1.[Br-]` [Compound 29, 4-(1-Hexadecylheptadecyl)-1-[4-(2,2':6',2''-terpyridin-4'-yl)phenylmethyl]pyridinium bromide], the viability at 2 µg/mL [3, 8] is reported as 610%, the viability at 10 µg/mL [3, 8] is reported as 570% and the viability at 2 µg/mL [3, 9] is reported as 500%. It also gave a viability at 10 µg/mL [3, 9] of 300%, a fold induction at 3 µg/mL ([1]; Mus musculus, 24 h, 3 µg/ml) of 1 and a fold induction at 10 µg/mL ([1]; Mus musculus, 24 h) of 2. The fold induction at 30 µg/mL ([1]; Mus musculus, 24 h) was 7.6, the fold induction at 100 µg/mL ([1]; Mus musculus, 24 h, 100 µg/ml) was 13 and the Incidence Frequency of Neuronal Damage - [2, 10] was 42.9%. The Incidence Frequency of Neuronal Damage + [2, 10] was 14.3%, the Incidence Frequency of Neuronal Damage ++ [2, 10] was 14.3% and the Incidence Frequency of Neuronal Damage +++ [2, 10] was 28.6%.

With `c1ccc(-c2cc(-c3ccncc3)cc(-c3ccccn3)n2)nc1` [Compound 30, 4'-(4-Pyridyl)-2,2':6',2''-terpyridine] the viability at 2 µg/mL [3, 8] was 420%, the viability at 10 µg/mL [3, 8] was 120% and the viability at 2 µg/mL [3, 9] was 530%. It also gave a viability at 10 µg/mL [3, 9] of 130%, a fold induction at 2 µg/mL ([1]; Mus musculus, 24 h, 2 µg/ml, 24 hours, read-out: Synthesis-Stimulating Activity on NGF) of 1 and a fold induction at 10 µg/mL ([1]; Mus musculus, 24 h) of 1.2. The fold induction at 50 µg/mL ([1]; Mus musculus, 24 h, 50 µg/ml, 24 hours, read-out: Synthesis-Stimulating Activity on NGF) was 1.2, the Incidence Frequency of Neuronal Damage - [2, 4] was 100% and the Incidence Frequency of Neuronal Damage + [2, 4] was 0%. It also gave an Incidence Frequency of Neuronal Damage ++ [2, 4] of 0% and an Incidence Frequency of Neuronal Damage +++ [2, 4] of 0%.

Reference: patent EP0677293A1, “PHARMACEUTICAL USE OF TERPYRIDINE DERIVATIVE” (priority 1992, dated 1994)
